The source of these data is patent publication US7169777B2, “Melanocortin receptor agonists” (Eli Lilly and Company, priority 2001, dated 2007).

Where a name gives a salt, the structure may show the parent alone. Read-outs that look alike come from different tables or passages of the source.

For test [1], the target named is T1, MC4 (Homo sapiens, UniProt P32245). The test is described as follows: Melanocortin receptor whole cell cAMP accumulation assay (MC4R). It is filed as cell-based. Details: expressed in transfected cells; host or cells: HEK 293 (stably transfected). Particulars: for Relative Eff.: relative efficacy compared to NDP-alpha-MSH, defined as a 100% agonist. The procedure: Melanocortin Receptor Whole Cell cAMP Accumulation Assay
T1 sequence (P32245 whole entry): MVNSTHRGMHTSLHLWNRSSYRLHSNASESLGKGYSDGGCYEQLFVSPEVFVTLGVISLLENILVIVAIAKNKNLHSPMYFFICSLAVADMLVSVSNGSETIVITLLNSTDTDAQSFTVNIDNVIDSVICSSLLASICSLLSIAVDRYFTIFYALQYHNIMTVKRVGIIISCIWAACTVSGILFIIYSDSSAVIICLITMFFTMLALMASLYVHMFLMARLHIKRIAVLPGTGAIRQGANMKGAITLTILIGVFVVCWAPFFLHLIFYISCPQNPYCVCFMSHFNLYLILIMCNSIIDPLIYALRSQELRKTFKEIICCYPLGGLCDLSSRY
These are serially diluted in 100% DMSO. The compound plate is further diluted 1:200 in compound dilution buffer (HBSS-092, 1 mM Ascorbic Acid, 1 mM IBMX, 0.6% DMSO, 0.1% BSA). […] Transfer 20 μl from this plate into four PET 96-well plates (all assays are performed in duplicate for each receptor).
[…] cells stably transfected with the MC3R and MC4R were grown in DMEM containing 10% FBS and 1% Antibiotic/Antimycotic Solution. On the day of the assay the cells were dislodged with enzyme free cell dissociation solution and resuspended in cell buffer (HBSS-092, 0.1% BSA, 10 mM HEPES) at 1×e6 cells/ml. Add 40 μl of cells/well to the PET 96-well plates containing 20 ul diluted compound and control. Incubate @ 37° C. in a waterbath for 20 minutes. Stop the assay by adding 50 μl Quench Buffer (50 mM Na Acetate, 0.25% Triton X-100).
Radioligand binding assays were run in SPA buffer (50 mM Sodium Acetate, 0.1% BSA). The beads, antibody and radioligand were diluted in SPA buffer to provide sufficient volume for each 96-well plate. […] The plates were counted in a Wallac MicroBeta counter after a 12-hour incubation.
The data was converted to pmoles cAMP using a standard curve assayed under the same conditions. The data was analyzed using Activity Base software to generate agonist potencies (EC50) and percent relative efficacy data to NDP-aMSH.

Test [2] addresses T1, MC4. The test is described as follows: Radioligand binding assay (125I-NDP-alpha-MSH competition, SPA, membranes of transfected HEK 293 cells). The arrangement: expressed in transfected cells; host or cells: HEK 293 (stably transfected), membrane preparation. As for the experimental part: HEK 293 cells transfected with human or rat melanocortinin receptors are grown either as adherent monolayers or suspension culture. Monolayer cells are grown in roller bottle cultures at 37° C. and 5% CO2/air atmosphere in a 3:1 mixture of Dulbecco's modified Eagle medium (DMEM) and Ham's F12 containing 25 mM […], 100 units/ml penicillin G, 100 microgram/ml streptomyocin, 250 nanogram/ml amphoterin B, 300 microgram/ml genticin and supplemented with 5% fetal bovine serum. […] Cells are harvested by centrifugation, washed in PBS, and pellets are stored frozen at −80° C. until membrane preparations.
The cell pellets are resuspended in 10 volumes of membrane preparation buffer (i.e., 1 g pellet to 10 ml buffer) having the following composition: 50 mM Tris pH 7.5 @ 4° C., 250 mM sucrose, 1 mM MgCl2, Complete® EDTA-free protease inhibitor tablet (Boehringer Mannheim), and 24 micrograms/ml DNase I (Sigma, St. Louis, Mo.). The cells are homogenized with a motor-driven dounce using 20 strokes, and the homogenate is centrifuged at 38,000×g at 4° C. for 40 minutes. The pellets are resuspended in membrane preparation buffer at a concentration of 2.5–7.5 mg/ml and 1 milliliter aliquots of membrane homogenates are quickly frozen in liquid nitrogen and then stored at −80° C.
Solutions of a compound of formula I (300 picomolar to 30 micromolar) or unlabelled NDP-alpha-MSH (1 picomolar to 100 nanomolar) are added to 150 microliters of membrane binding buffer to yield final concentrations (listed in parantheses). The membrane binding buffer has the following composition: 25 mM HEPES pH 7.5; 10 mM CaCl2; 0.3% BSA). […] Additionally, fifty microliters of SPA beads (5 mg/ml) are added and the resulting mixture is agitated briefly and incubated for 10 hours at room temperature. The radioactivity is quantified in a Wallac Trilux Microplate Scintillation counter. IC50 values obtained in competition assays are converted to affinity constants (Ki values) using the Cheng-Prusoff equation: Ki=IC50/(1+D/Kd).

Test [3] relates to rodents. Particulars: injected intracerebroventricularly (ICV); NPY, ob/ob, agouti, fasted models; cited from earlier work.
Where [4] appears, read: MC4 agonist potency, read-out: MC4 EC50.
[5] abbreviates: 125I-NDP-alpha-MSH competition, Ki from IC50 by Cheng-Prusoff, read-out: MC4 Binding Ki.

In general, EC50 refers to the concentration that produces a half-maximal response. What is called Ki is a measure of affinity in units of concentration, obtained from inhibition or displacement. Take `CCN(CC)CC(c1ccccc1F)N1CCN(C(=O)[C@@H](Cc2ccc(Cl)cc2)NC(=O)[C@H]2Cc3ccccc3C(C)(C)N2)CC1` (some centres unmarked) [Compd 814]: in test [1] (setting [4]), the concentration giving a half-maximal response (EC50) worked out at 127 nM. Further, the “Relative Eff.” value in test [1] was found to be 108.6. The Ki in test [2] (setting [5]) turned out to be 18.1 nM.
melanotanin-II [MT-II]: in test [3], the food intake result is on record as “reduces food intake”.
As for `CC(C)CN(CC(C1CCCCC1)N1CCN(C(=O)C(Cc2ccc(Cl)cc2)NC(=O)CC2NCc3ccccc32)CC1)S(C)(=O)=O` (single isomer, unassigned) [Example N71, N-(1-(4-Chloro-benzyl)-2-{4-[1-cyclohexyl-2-(isobutyl-methanesulfonyl-amino)-ethyl]-piperazin-1-yl}-2-oxo-ethyl)-2-(2,3-dihydro-1H-isoindol-1-yl)-acetamide dihydrochloride salt], in test [1] (setting [4]), the EC50 came out at 8.4 nM. For the same compound, the “Relative Eff.” value in test [1] was 102.6. The Ki in test [2] (setting [5]) is 11.3 nM.
Take SHU-9119: the food intake entry in test [3] is “reverses this effect and can induce hyperphagia”.
Regarding `CC(C)CC(CC(C)C)N1CCN(C(=O)[C@@H](Cc2ccc(Cl)cc2)NC(=O)CC2NCc3ccccc32)CC1.Cl.Cl` (some centres unmarked) [Compd 3251], the EC50 in test [1] (setting [4]) was 76.7 nM. For the same compound, the “Relative Eff.” value in test [1] is listed as 67.0. Further, the Ki in test [2] (setting [5]) came out at 5.8 nM.
In the case of `O=C(CC1NCc2ccccc21)N[C@H](Cc1ccc(Cl)cc1)C(=O)N1CCN(C(CC2CCCCC2)CN2CCOCC2)CC1` (mixture of isomers) [Example N38, N-{1-(4-chloro-benzyl)-2-[4-(1-cyclohexylmethyl-2-morpholine-4-yl-ethyl)-piperazin-1-yl]-2-oxo-ethyl}-2-(2,3-dihydro-1H-isoindol-1-yl)-acetamide tri(trifluoroacetate) salt], in test [1], the EC50 worked out at 69.3 nM and the “Relative Eff.” value is 115.6. In test [2], this compound returned a Ki of 10 nM.
